From patent publication US11866518B2, “Bicyclic peptide ligands specific for TSLP” (BicycleTx Limited, priority 2020, dated 2024)
*1 amine or outer side, *2 acyl side, *3 side chain or, on linkers, in order; H or OH if unused. Where a SMILES comes first, the peptide text is derived from it. Bridges are numbered along the chain shown (N, C = ends). TATA = O=C(CC[*:1])N1CN(C(=O)CC[*:2])CN(C(=O)CC[*:3])C1

Molecular target: TSLP (Homo sapiens, UniProt Q969D9)
Assay: Human TSLP Surface Plasmon Resonance (SPR) binding assay
Design: The resulting construct spCD33-6×HN-TEV-hTSLP(29-159)-Avi; 6xHN tag with TEV site (N, cleaved yes); made in house; host or cells: Expi293F cells
Details: biotinylated human TSLP immobilized on streptavidin chip; 20° C.; steady-state or kinetic 1:1 fit; read-out: hTSLP SPR Kd

TSLP, sequence (Q969D9 29-159): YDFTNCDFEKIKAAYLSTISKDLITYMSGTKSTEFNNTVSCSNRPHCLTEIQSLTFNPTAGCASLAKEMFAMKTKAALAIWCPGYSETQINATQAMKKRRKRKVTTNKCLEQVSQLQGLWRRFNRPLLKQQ

Row | Structure (SMILES) | Kd [nM]
1 | CC(=O)N[C@H]1CSCCC(=O)N2CN3CN(C2)C(=O)CCSC[C@H](NC(=O)[C@H](CC(=O)O)NC(=O)[C@H](CCC(=O)O)NC(=O)[C@H](CC(C)C)NC(=O)[C@H](Cc2c[nH]c4ccccc24)NC(=O)[C@H](CCC(N)=O)NC1=O)C(=O)N[C@@H](Cc1c[nH]c2ccccc12)C(=O)N[C@@H](CCCNC(=N)N)C(=O)NCC(=O)N[C@@H](Cc1cc(F)c(Cl)c(F)c1)C(=O)N[C@H](C(N)=O)CSCCC3=O [Example 58, Ac-(SEQ ID NO: 46)] | 52
2 | CC(C)C[C@@H]1NC(=O)[C@H](Cc2c[nH]c3ccccc23)NC(=O)[C@H](CCC(N)=O)NC(=O)[C@@H](NC(=O)[C@@H](NC(=O)[C@H](CCCNC(=N)N)NC(=O)[C@H](CCC(N)=O)NC(=O)[C@H](CCC(=O)O)NC(=O)[C@H](CC(=O)O)NC(=O)[C@@H](N)CO)[C@@H](C)O)CSCCC(=O)N2CN3CN(C2)C(=O)CCSC[C@H](NC(=O)[C@H](CC(=O)O)NC(=O)[C@H](CCC(=O)O)NC1=O)C(=O)N[C@@H](Cc1c[nH]c2ccccc12)C(=O)N[C@@H](CCCNC(=N)N)C(=O)NCC(=O)N[C@@H](Cc1ccccc1)C(=O)N[C@H](C(=O)N[C@@H](C)C(N)=O)CSCCC3=O [Example 61, SDEQRT-(SEQ ID NO: 38)-A] | 62
3 | CC(C)C[C@@H]1NC(=O)[C@H](Cc2c[nH]c3ccccc23)NC(=O)[C@H](CCC(N)=O)NC(=O)[C@@H](NC(=O)CNC(=O)[C@@H](NC(=O)[C@H](CCC(=O)O)NC(=O)[C@H](CC(=O)O)NC(=O)[C@@H](NC(=O)[C@@H](N)CCCNC(=N)N)[C@@H](C)O)[C@@H](C)O)CSCCC(=O)N2CN3CN(C2)C(=O)CCSC[C@H](NC(=O)[C@H](CC(=O)O)NC(=O)[C@H](CCC(=O)O)NC1=O)C(=O)N[C@@H](Cc1c[nH]c2ccccc12)C(=O)N[C@@H](CCCNC(=N)N)C(=O)NCC(=O)N[C@@H](Cc1ccccc1)C(=O)N[C@H](C(=O)N[C@@H](C)C(N)=O)CSCCC3=O [Example 67, RTDETG-(SEQ ID NO: 38)-A] | 75
4 | CC(=O)N[C@H]1CSCCC(=O)N2CN3CN(C2)C(=O)CCSC[C@H](NC(=O)[C@H](CC(=O)O)NC(=O)[C@H](CCC(=O)O)NC(=O)[C@H](CC(C)C)NC(=O)[C@H](Cc2cccc4ccccc24)NC(=O)[C@H](CCC(N)=O)NC1=O)C(=O)N[C@@H](Cc1c[nH]c2ccccc12)C(=O)N[C@@H](CCCNC(=N)N(C)C)C(=O)NCC(=O)N[C@@H](Cc1ccc(F)cc1)C(=O)N[C@H](C(=O)O)CSCCC3=O [Example 69, Ac-(SEQ ID NO: 34)-COOH] | 77
5 | CC(C)C[C@@H]1NC(=O)[C@H](Cc2c[nH]c3ccccc23)NC(=O)[C@H](CCC(N)=O)NC(=O)[C@@H](NC(=O)[C@H](CCC(=O)O)NC(=O)[C@H](CC(C)C)NC(=O)[C@H](CC(N)=O)NC(=O)[C@H](CC(N)=O)NC(=O)[C@@H](NC(=O)[C@@H](N)CCC(=O)O)[C@@H](C)O)CSCCC(=O)N2CN3CN(C2)C(=O)CCSC[C@H](NC(=O)[C@H](CC(=O)O)NC(=O)[C@H](CCC(=O)O)NC1=O)C(=O)N[C@@H](Cc1c[nH]c2ccccc12)C(=O)N[C@@H](CCCNC(=N)N)C(=O)NCC(=O)N[C@@H](Cc1ccccc1)C(=O)N[C@H](C(=O)N[C@@H](C)C(N)=O)CSCCC3=O [Example 71, ETNNLE-(SEQ ID NO: 38)-A] | 82
6 | CC(=O)N[C@H]1CSCCC(=O)N2CN3CN(C2)C(=O)CCSC[C@H](NC(=O)[C@H](CC(=O)O)NC(=O)[C@H](CCC(=O)O)NC(=O)[C@H](CC(C)C)NC(=O)[C@H](Cc2c[nH]c4ccccc24)NC(=O)[C@H](CCC(N)=O)NC1=O)C(=O)N[C@@H](Cc1c[nH]c2ccccc12)C(=O)N[C@@H](CCCNC(=N)N)C(=O)NCC(=O)N[C@@H](Cc1ccc(C(F)(F)F)cc1)C(=O)N[C@H](C(N)=O)CSCCC3=O [Example 77, Ac-(SEQ ID NO: 58)] | 93
7 | CC(=O)N[C@H]1CSCCC(=O)N2CN3CN(C2)C(=O)CCSC[C@H](NC(=O)[C@H](CC(=O)O)NC(=O)[C@H](CCC(=O)O)NC(=O)[C@H](CC(C)C)NC(=O)[C@H](Cc2c[nH]c4ccccc24)NC(=O)[C@H](CCC(N)=O)NC1=O)C(=O)N[C@@H](Cc1c[nH]c2ccccc12)C(=O)N[C@@H](CCCC[N+](C)(C)C)C(=O)NCC(=O)N[C@@H](Cc1ccccc1)C(=O)N[C@H](C(N)=O)CSCCC3=O [Example 81, Ac-(SEQ ID NO: 61)] | 100
8 | CC(C)C[C@@H]1NC(=O)[C@H](Cc2c[nH]c3ccccc23)NC(=O)[C@H](CCC(N)=O)NC(=O)[C@@H](N)CSCCC(=O)N2CN3CN(C2)C(=O)CCSC[C@H](NC(=O)[C@H](CC(=O)O)NC(=O)[C@H](CCC(=O)O)NC1=O)C(=O)N[C@@H](Cc1c[nH]c2ccccc12)C(=O)N[C@@H](CCCNC(N)=O)C(=O)NCC(=O)N[C@@H](Cc1ccccc1)C(=O)N[C@H](C(N)=O)CSCCC3=O [Example 102, (SEQ ID NO: 76)] | 170
9 | CC(C)C[C@@H]1NC(=O)[C@H](Cc2c[nH]c3ccccc23)NC(=O)[C@H](CC(N)=O)NC(=O)[C@@H](NC(=O)[C@H](C)N)CSCCC(=O)N2CN3CN(C2)C(=O)CCSC[C@H](NC(=O)[C@H](CC(=O)O)NC(=O)[C@H](CCC(=O)O)NC1=O)C(=O)N[C@@H](Cc1c[nH]c2ccccc12)C(=O)N[C@@H](Cc1c[nH]cn1)C(=O)NCC(=O)N[C@@H](Cc1ccccc1)C(=O)N[C@H](C(=O)N[C@@H](Cc1c[nH]cn1)C(=O)N[C@@H](CCC(=O)O)C(=O)N[C@@H](CCC(=O)O)C(N)=O)CSCCC3=O [Example 125, A-(SEQ ID NO: 89)-HEE] (H-ACNWLEDCWHGFCHEE-NH2; linker 2-8-13 via TATA) | 300
10 | CC(C)C[C@@H]1NC(=O)[C@H](Cc2c[nH]c3ccccc23)NC(=O)[C@H](CCC(N)=O)NC(=O)[C@@H](N)CSCCC(=O)N2CN3CN(C2)C(=O)CCSC[C@H](NC(=O)[C@H](CC(=O)O)NC(=O)[C@H](CCC(=O)O)NC1=O)C(=O)N[C@@H](Cc1c[nH]c2ccccc12)C(=O)N[C@@H](CCCNC(=N)N)C(=O)NCC(=O)N[C@@H](Cc1ccccc1)C(=O)N[C@H](C(=O)N[C@@H](CC(=O)O)C(=O)N[C@H](C(=O)N[C@@H](CO)C(=O)N[C@H](C(=O)N[C@@H](Cc1c[nH]cn1)C(=O)N[C@@H](CO)C(N)=O)[C@@H](C)O)[C@@H](C)O)CSCCC3=O [Example 128, (SEQ ID NO: 38)-DTSTHS] (H-CQWLEDCWRGFCDTSTHS-NH2; linker 1-7-12 via TATA) | 380
11 | CC(=O)N[C@H]1CSCCC(=O)N2CN3CN(C2)C(=O)CCSC[C@H](NC(=O)[C@H](CC(=O)O)NC(=O)[C@H](CCC(=O)O)NC(=O)[C@H](CC(C)C)NC(=O)[C@H](Cc2c[nH]c4ccccc24)NC(=O)[C@H](CCC(N)=O)NC1=O)C(=O)N[C@@H](Cc1c[nH]c2ccccc12)C(=O)N[C@@H](CCONC(=N)N)C(=O)NCC(=O)N[C@@H](Cc1ccccc1)C(=O)N[C@H](C(N)=O)CSCCC3=O [Example 131, Ac-(SEQ ID NO: 92)] | 400
12 | CC(=O)N[C@H]1CSCCC(=O)N2CN3CN(C2)C(=O)CCSC[C@H](NC(=O)[C@H](CC(=O)O)NC(=O)[C@H](CCC(=O)O)NC(=O)[C@H](CC(C)C)NC(=O)[C@H](Cc2c[nH]c4ccccc24)NC(=O)[C@H](CCC(N)=O)NC1=O)C(=O)N[C@@H](Cc1c[nH]c2ccccc12)C(=O)N[C@@H](CCCNC(=N)N)C(=O)NCC(=O)N[C@@H](Cc1cccs1)C(=O)N[C@H](C(N)=O)CSCCC3=O [Example 135, Ac-(SEQ ID NO: 96)] | 490
13 | CC(C)C[C@@H]1NC(=O)[C@H](Cc2c[nH]c3ccccc23)NC(=O)[C@H](CC(=O)O)NC(=O)[C@@H](NC(=O)[C@H](C)N)CSCCC(=O)N2CN3CN(C2)C(=O)CCSC[C@H](NC(=O)[C@H](CC(=O)O)NC(=O)[C@H](CC(=O)O)NC1=O)C(=O)N[C@@H](Cc1c[nH]c2ccccc12)C(=O)N[C@@H](CCCCN)C(=O)NCC(=O)N[C@@H](Cc1ccccc1)C(=O)N[C@H](C(=O)N[C@@H](C)C(N)=O)CSCCC3=O [Example 141, A-(SEQ ID NO: 100)-A] (H-ACDWLDDCWKGFCA-NH2; linker 2-8-13 via TATA; N-terminus and C-terminus assumed) | 600
14 | COc1ccc(C[C@@H]2NC(=O)CNC(=O)[C@H](CCCNC(=N)N)NC(=O)[C@H](Cc3c[nH]c4ccccc34)NC(=O)[C@@H]3CSCCC(=O)N4CN(CN(C4)C(=O)CCSC[C@H](NC(C)=O)C(=O)N[C@@H](CCC(N)=O)C(=O)N[C@@H](Cc4c[nH]c5ccccc45)C(=O)N[C@@H](CC(C)C)C(=O)N[C@@H](CCC(=O)O)C(=O)N[C@@H](CC(=O)O)C(=O)N3)C(=O)CCSC[C@@H](C(N)=O)NC2=O)cc1 [Example 142, Ac-(SEQ ID NO: 101)] | 710
15 | CC(=O)N[C@H]1CSCCC(=O)N2CN3CN(C2)C(=O)CCSC[C@H](NC(=O)[C@H](CC(=O)O)NC(=O)[C@H](CCC(=O)O)NC(=O)[C@H](CC(C)C)NC(=O)[C@H](Cc2c[nH]c4ccccc24)NC(=O)[C@H](CCC(N)=O)NC1=O)C(=O)N[C@@H](Cc1c[nH]c2ccccc12)C(=O)N[C@@H](CCCNC(=N)N)C(=O)NCC(=O)N[C@@H](Cc1cccc(Br)c1)C(=O)N[C@H](C(N)=O)CSCCC3=O [Example 143, Ac-(SEQ ID NO: 102)] | 750
16 | CC(=O)N[C@H]1CSCCC(=O)N2CN3CN(C2)C(=O)CCSC[C@H](NC(=O)[C@H](CC(=O)O)NC(=O)[C@H](CCC(=O)O)NC(=O)[C@H](CC(C)C)NC(=O)[C@H](Cc2c[nH]c4ccccc24)NC(=O)[C@H](CCC(N)=O)NC1=O)C(=O)N[C@@H](Cc1c[nH]c2ccccc12)C(=O)N[C@@H](CCCNC(=N)N)C(=O)NCC(=O)N[C@@H](Cc1ccccn1)C(=O)N[C@H](C(N)=O)CSCCC3=O [Example 146, Ac-(SEQ ID NO: 105)] | 910
17 | CC(=O)N[C@H]1CSCCC(=O)N2CN3CN(C2)C(=O)CCSC[C@H](NC(=O)[C@H](CC(=O)O)NC(=O)[C@H](CCC(=O)O)NC(=O)[C@H](CC[S+](C)[O-])NC(=O)[C@H](Cc2c[nH]c4ccccc24)NC(=O)[C@H](CCC(N)=O)NC1=O)C(=O)N[C@@H](Cc1c[nH]c2ccccc12)C(=O)N[C@@H](CCCNC(=N)N)C(=O)NCC(=O)N[C@@H](Cc1ccccc1)C(=O)N[C@H](C(N)=O)CSCCC3=O (some centres unmarked) [Example 147, Ac-(SEQ ID NO: 106)] | 940
